“Also recorded” adds a separate entry of the source. Where a name gives a salt, the structure may show the parent alone. Read-outs that look alike come from different tables or passages of the source.
Key:
[1] = tested on: metabolically resistant Hikone-R strain of Drosophila; format: in vivo; settings: Hikone, FIG. 6
Description: (§1) All experimental materials were purchased from Sigma-Aldrich-Fluka (Milwaukee, Wis.) and were of 99% purity or greater. […] All volatile insecticide stocks were prepared at 100 μg/μl in analytical grade acetone. Rather than weigh the highly volatile liquid insecticides (i.e., all compounds except benzothiophene), weight was determined based on the density-volume relationship of each compound. Four serial dilutions were prepared and tested for each insecticide as described previously (Scharf et al., 2006). The insecticide synergists PBO (piperonyl butoxide) and DEF (SSS-tributyl-phosphoro-trithioate) were obtained from Fluka Chemical Co. (Basel, Switzerland) and Mobay Chemical Co. (Kansas City, Mo.). Both synergists were >95% purity. Synergist stocks were prepared at 100 μg/ml in analytical grade acetone.
(§2) Volatility bioassays were conducted exactly as described in a previous report (Scharf et al., 2006). Briefly, bioassays took place in 0.5-l glass jars with metal lids. Mixed-sex flies were isolated from lab colonies and placed in 4-ml dram vials in groups of ten, along with a dried piece of laboratory diet. The dram vials were capped with open-top septum caps that were covered with fine mesh (held in place by non-toxic glue). For bioassays, the assembled dram vials were placed into the 0.5-l jars along with a folded filter paper “tent” (Whatman #1; Vineland, N.J.). The filter paper was treated with either an insecticide dilution or acetone, the jar was sealed with the metal lid, and the bioassay proceeded for 24-hr at room temperature. Mortality was scored based on a complete lack of movement by the flies. Four concentrations plus an acetone control were tested for all insecticides. Between five and ten replicates were performed for each concentration range on each strain-insecticide combination. Synergist bioassays were performed with a slight modification. Synergist stocks were applied to dram vials at 100 μl per vial to provide assay concentrations of 10 μg per vial. […] After treatment, vials were held at an angle in a fume hood and rotated ¼-turn each minute until the acetone evaporated. Flies and diet were added as above and held for 1-hr. Assays were initiated, run, and scored as above.
(§3) Probit analysis was performed using PROC PROBIT in the SAS software package (SAS Institute; Cary, N.C.). If control mortality ever exceeded 10% in a given replicate, that replicate was discarded. Toxicity and synergist ratios at LC50 were compared statistically using the calculation described by Robertson and Preisler (1992). Using this procedure, ratios with 95% confidence intervals were calculated using a spreadsheet-based program. With this calculation, if confidence intervals include 1.0 then ratios are considered non-significant (p>0.05; Robertson and Preisler, 1992).

[2] = tested on: insecticide-susceptible Canton-S strain of Drosophila; format: in vivo
Description: as §1, §2, §3

[3] = tested on: para-ts1 (para-R) strain of Drosophila (sodium channel point mutation); format: in vivo; settings: significance at p<0.05, method of Robertson and Preisler
Description: (§4) Four Drosophila strains were used, all obtained from the Bloomington Drosophila Stock Center (Indiana University; Bloomington, Ind.). The Canton-S strain was used as the insecticide-susceptible standard. […] Two resistant neurological-mutant strains were also tested. […] Flies were reared in 100-ml vials capped with acetate plugs (Fisher Scientific; Suwanee, Ga.) on a commercial diet (JAZZ-MIX; Fisher Scientific). […] Mixed-sex adults, less than 1-wk old, were used in bioassays.
(§5) All volatile insecticide stocks were prepared at 100 μg/μl in analytical grade acetone. Rather than weigh the highly volatile liquid insecticides (i.e., all compounds except benzothiophene), weight was determined based on the density-volume relationship of each compound. […] The insecticide synergists PBO (piperonyl butoxide) and DEF (SSS-tributyl-phosphoro-trithioate) were obtained from Fluka Chemical Co. (Basel, Switzerland) and Mobay Chemical Co. (Kansas City, Mo.). […] Synergist stocks were prepared at 100 μg/ml in analytical grade acetone.
(§6) Briefly, bioassays took place in 0.5-l glass jars with metal lids. Mixed-sex flies were isolated from lab colonies and placed in 4-ml dram vials in groups of ten, along with a dried piece of laboratory diet. The dram vials were capped with open-top septum caps that were covered with fine mesh (held in place by non-toxic glue). For bioassays, the assembled dram vials were placed into the 0.5-l jars along with a folded filter paper “tent” (Whatman #1; Vineland, N.J.). The filter paper was treated with either an insecticide dilution or acetone, the jar was sealed with the metal lid, and the bioassay proceeded for 24-hr at room temperature. Mortality was scored based on a complete lack of movement by the flies. Four concentrations plus an acetone control were tested for all insecticides. Between five and ten replicates were performed for each concentration range on each strain-insecticide combination. Synergist bioassays were performed with a slight modification. Synergist stocks were applied to dram vials at 100 μl per vial to provide assay concentrations of 10 μg per vial. […] After treatment, vials were held at an angle in a fume hood and rotated ¼-turn each minute until the acetone evaporated. Flies and diet were added as above and held for 1-hr. Assays were initiated, run, and scored as above.
(§7) Probit analysis was performed using PROC PROBIT in the SAS software package (SAS Institute; Cary, N.C.). If control mortality ever exceeded 10% in a given replicate, that replicate was discarded.

[4] = tested on: metabolically-resistant Hikone-R strain of Drosophila (elevated cytochrome P450); format: in vivo; settings: for response of Hikone-R relative to Canton-S (LC50 ratio Hikone÷Canton, FIG. 5), in words: significance at p<0.05, method of Robertson and Preisler
Description: as §4, §5, §6, §7

[5] = tested on: Rd1 (Rdl-R) strain of Drosophila (GABA-gated chloride channel point mutation); format: in vivo, Drosophila melanogaster
Text: (§8) Four Drosophila strains were used, all obtained from the Bloomington Drosophila Stock Center (Indiana University; Bloomington, Ind.). The Canton-S strain was used as the insecticide-susceptible standard. The Hikone-R strain is metabolically-resistant with elevated cytochrome P450 levels (Waters et al., 1984; Sundseth et al., 1989; Le Goff et al., 2003; Festucci-Buselli et al., 2005). Hikone-R is resistant to a number of insecticides, including malathion, DDT and neonicotinoids (Sundseth et al., 1989; Daborn et al., 2001). Two resistant neurological-mutant strains were also tested. […] Flies were reared in 100-ml vials capped with acetate plugs (Fisher Scientific; Suwanee, Ga.) on a commercial diet (JAZZ-MIX; Fisher Scientific). Flies were reared on a 12:12 photocycle at 24° C. and 60% relative humidity. Mixed-sex adults, less than 1-wk old, were used in bioassays.
as §1, §2, §3

[6] = tested on: insecticide-susceptible Drosophila melanogaster (Canton-S strain); format: in vivo; settings: in vivo
Description: The insecticide-susceptible Canton-S strain of Drosophila was obtained from the Bloomington Drosophila stock center (Indiana University, Bloomington, Ind.), and used exclusively in all studies. Flies were reared in 100-ml vials capped with acetate plugs (Fisher Scientific; Suwannee, Ga.) on a JAZZ-MIX diet (Fisher) prepared with a 2:1 ratio of water to apple juice. Flies were reared on a 12:12 photocycle at 24° C. and ambient relative humidity. Mixed-sex adults, less than 1-wk old, were used in bioassays.
Flies were briefly anesthetized in rearing vials with a pulse of CO2 and transferred to a CO2 flowbed (Genesee Scientific; San Diego, Calif.). Using a camel hair brush and a 5×5 cm sheet of rice paper, ten flies were placed into 7.0 ml dram vials. Prior to adding flies, each vial received a 0.5 cm^3 block of rearing diet that had been sufficiently dried on a paper towel to remove excessive moisture. The vials were then capped with open-top septum caps (Fisher) that were covered with fine mesh. The mesh was applied to the septum caps in advance using hot glue; it prevented fly escape but readily permitted gas exchange. The flies were allowed 1-hr to recover from the CO2 anesthesia. After one hour, single vials with flies were placed into 0.5 L glass jars, along with a filter paper tent (see FIG. 1). In a fume hood, filter paper tents were treated with insecticide dilutions or acetone for controls. The jars were then rapidly closed tightly with a metal lid. After 24 hours of exposure, mortality was scored with the aid of a magnifying glass.
All test compounds and solvents were >99% purity, and were purchased from Sigma-Aldrich Chemical (Milwaukee, Wis.). See Table 1 for a listing of the test compounds and their structures. Insecticide stock solutions were prepared at a standard concentration of 100 μg/μl in analytical grade acetone. For liquid insecticidal compounds, density in mg/μl was used to calculate weight on a per-volume basis. Stock solutions were held at −20° C. in sealed amber vials. In bioassay jars, filter paper tents were treated with stock volumes ranging from 2 to 20 μl, depending on the inherent toxicity of the test compound. These volumes of insecticide stock provided test concentrations of 200 to 2000 μg insecticide per replicate jar. A range of 4-5 concentrations plus a control were tested for each insecticide, and each range was repeated five times over at least three days. Controls received a volume of acetone identical to the highest insecticide volume that was tested (i.e., 10 μl for menthofuran; 20 μl for all other insecticides). Between uses, bioassay jars and lids were washed in a dishwasher, then baked 12-16 hr at 90° C. in a drying oven.
Probit and regression analyses were performed using the PROC PROBIT and PROC REG procedures, respectively. […] If control mortality ever exceeded 10% in a given replicate, that replicate was discarded.
as §8

[7] = Table 3, Hikone-R, no synergist, 24 hr

Structure (SMILES) | effect of PBO treatment on toxicity, in words [1] | efficacy level when mixed with the P450 inhibitor PBO ([2]; 'levels on the same scale' as MITC and DDVP) [µg/L] | effect of PBO treatment on toxicity, in words ([2]; Canton-S, FIG. 6) | response of para-ts1 relative to Canton-S (LC50 ratio, FIG. 7B), in words [3] | Slope ± Std. Error (probit mortality line) ([4]; Table 2, Hikone-R, 24 hr) | Slope ± Std. Error (probit mortality line) [4, 7] | response of Hikone-R relative to Canton-S (LC50 ratio Hikone÷Canton, FIG. 5), in words ([4]; listed as mentho-) | response of Hikone-R relative to Canton-S (LC50 ratio Hikone÷Canton, FIG. 5), in words ([4]; listed as menthofuran) | response of Rd1 relative to Canton-S (LC50 ratio, FIG. 7A), in words ([5]; in vivo) | response of Hikone-R relative to Canton-S (LC50 ratio Hikone÷Canton, FIG. 5), in words [4] | LC50 (95% CL) [6] | LC50 ([4]; in vivo) | Slope ± Std. Error (probit mortality line) ([4]; in vivo) | LC50 ([5]; in vivo) | response of Rd1 relative to Canton-S (LC50 ratio, FIG. 7A), in words ([5]; significance at p<0.05, method of Robertson and Preisler)
Cc1coc2c1CC[C@H](C)C2 [Menthofuran, menthofuran] | no effects | < 100 | increased menthofuran toxicity | enhanced susceptibility | 4.12 ± 0.45 | 4.12 ± 0.45 | significantly enhanced susceptibility | significantly more susceptible; also recorded: greater susceptibility; also recorded: enhanced susceptibility | significantly enhanced susceptibility | – | – | – | – | – | –
c1ccc2sccc2c1 [Benzothiophene, benzothiophene] | – | – | – | enhanced susceptibility | 4.42 ± 0.46 | 4.42 ± 0.46 | – | – | significantly enhanced susceptibility | significantly enhanced susceptibility; also recorded: greater susceptibility | – | – | – | – | –
CCCOC=O [Propyl Formate, propyl formate] | – | – | – | non-significant tolerance | 7.43 ± 1.26 | 7.43 ± 1.26 | – | – | significant resistance | – | 1833.0 (1787.0 − 1884.0) μg/jar | – | – | – | –
CC(C)(C)OC=O [t-Butyl Formate, tert-butyl formate] | – | – | – | elevated tolerance; also recorded: significant tolerance | 44.70 | 44.70 | – | – | significant resistance; also recorded: significant tolerance | non-significant tolerance | 1981.0 (1917.0 − 2048.4) μg/jar | – | – | – | –
CCCCCCOC=O [Hexyl Formate, hexyl formate] | – | – | – | non-significant tolerance | 3.26 ± 0.65 | 3.26 ± 0.65 | – | – | non-significant tolerance | non-significant tolerance | – | – | – | – | –
CCCCOC=O [Butyl Formate, butyl formate] | – | – | – | non-significant tolerance | – | – | – | – | – | – | – | 1570.0 μg insecticide per 0.5 liter of headspace | 8.82 ± 2.00 | 1246.0 μg insecticide per 0.5 liter of headspace | non-significant tolerance

Source: US20070154393A1, “Bioassay for volatile low molecular weight insecticides and methods of use” (priority 2005, published 2007)
